Consider 1 compound from patent publication US6949679B1, “Polyamine transport inhibitors” (Universite Laval, priority 1998, dated 2005).

The test system of series [1] is ZR-75-1 cells. In words: Time course of intracellular [3H]spermidine accumulation in presence of transport antagonists. The class given is cell-based, human. As to conditions: 200 μM DESC (40-fold excess), 5 μM [3H]spermidine, after 6 hours. The procedure: The time course of intracellular accumulation of spermidine in the presence of transport antagonists was determined by incubating ZR-75-1 cells in 24-well plates with DESC (50 or 200 μM) or MESC (200 μM) in dissolved in MEZR medium containing 5 μM [^3H]spermidine in the presence or absence of cycloheximide (CHX, 200 μM), and harvesting at the indicated times for the determination of intracellular radioactive contents, as described above for polyamine uptake assays.

The subject of series [2] is ZR-75-1 cells. In words: Reversal of DFMO-induced growth inhibition by exogenous spermidine. The class given is cell-based, human. As to conditions: 50 μM DESC, DESC:spermidine ratio up to 500. The procedure: For growth studies, ZR-75-1 cells were cultured in MEZR medium or in phenol red-free RPMI 1640 supplemented with 2 mM L-glutamine, 1 mM sodium pyruvate, 15 mM Hepes, antibiotics, 1 nM 17β-estradiol, 0.5 μg of bovine insulin per ml and 5% (v/v) charcoal-treated fetal bovine serum (SD medium), as indicated in the text. When polyamines or polyamine analogs were added to serum-containing media, 1 mM aminoguanidine was added to inhibit bovine serum amine oxidase (BSAO) activity (Morgan, D. M. L. 1989, in The Physiology of Polyamines (Bachrach, U., and Heimer, Y. M. eds) Vol. I, pp. 203-229, CRC Press, Boca Raton). The effect of the transport inhibitors on cell growth was measured by incubating ZR-75-1 cells for 11 days in medium supplemented with antagonist, polyamines and/or 1 mM DFMO as indicated, followed by colorimetric determination of DNA content with 3,4-diaminobenzoic acid (Simard, J., Dauvois, S., Haagensen, D. E., Lėvesque C., Mėrand, Y. and Labriė, F. 1990. Endocrinology 126: 3223-3231).
This possibility was assessed by comparing the ability of DESC to prevent the reversal of DFMO-induced growth inhibition by increasing concentrations of exogenous spermidine.

Series [3] in a line: Stability in buffered aqueous solution. The class given is physicochemical. As to conditions: buffered at pH=7.0.
The next series deals with polyamine transporter. In words: Inhibition of [14C]spermine uptake in ZR-75-1 cells. The class given is cell-based, human. As to conditions: 3μM substrate (Example 11), read-out: Ki, [14C]spermine transport.

For `NCCCNCCCC(NCCCN)C(=O)NCCSSCCNC(=O)C(CCCNCCCN)NCCCN` (stereo not shown) [DESC, 2,2′-dithiobis(N-ethyl-spermine-5-carboxamide)], the “Decrease of net spermidine accumulation” value with ZR-75-1 cells [1] worked out at 50%. Further, the “Ability to prevent reversal of DFMO-induced growth inhibition by spermidine” value with ZR-75-1 cells [2] is listed as “unable to prevent the reversal”. In series [3], the “Stability in aqueous solutions” value was “stable for months”. The Ki in the series with polyamine transporter came out at 17 µM.
